Molecules are shown by their SMILES. Calls of active or inactive are those of the source.

Series [1] deals with Peroxisome proliferator-activated receptor delta (Homo sapiens, UniProt Q03181). The series is described as follows: Agonist activity at human PPAR-delta expressed in CHO-K1 cells by PathHunter assay. The series is classed as cell-based.
Series [2] relates to Mus musculus. The series is described as follows: Antifibrotic activity in CDAHFD-induced nonalcoholic steatohepatitis C57BL/6J mouse model assessed as reduction in TIMP-1 gene expression at 80 mg/kg, po administered daily for 4 weeks. The format is functional, organism-based.
Series [3] in a line: Toxicity in CDAHFD-induced nonalcoholic steatohepatitis C57BL/6J mouse model assessed as change in body weight at 80 mg/kg, po administered daily for 4 weeks. The series is classed as organism-based. Particulars: in vivo, 672 h.
A short description of series [4]: Toxicity in CDAHFD-induced nonalcoholic steatohepatitis C57BL/6J mouse model assessed as change in amount of food intake at 80 mg/kg, po administered daily for 4 weeks. Particulars: in vivo, 672 h. The format is organism-based.
Series [5] addresses T1, Bile acid receptor (Mus musculus) (UniProt Q60641).
T1 sequence (whole entry): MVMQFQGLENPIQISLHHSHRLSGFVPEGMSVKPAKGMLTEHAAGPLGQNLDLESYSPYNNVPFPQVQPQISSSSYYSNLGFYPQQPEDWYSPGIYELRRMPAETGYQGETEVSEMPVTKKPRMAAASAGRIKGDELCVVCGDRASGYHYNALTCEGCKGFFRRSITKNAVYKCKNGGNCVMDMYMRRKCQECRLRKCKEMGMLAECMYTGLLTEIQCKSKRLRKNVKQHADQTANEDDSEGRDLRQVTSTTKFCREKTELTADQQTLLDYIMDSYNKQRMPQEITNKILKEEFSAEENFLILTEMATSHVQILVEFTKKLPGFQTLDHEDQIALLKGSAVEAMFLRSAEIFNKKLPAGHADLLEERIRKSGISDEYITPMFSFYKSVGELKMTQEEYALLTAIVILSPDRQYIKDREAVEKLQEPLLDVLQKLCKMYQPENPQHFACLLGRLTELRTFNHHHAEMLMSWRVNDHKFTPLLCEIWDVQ
The series is described as follows: In vivo activation of FXR in CDAHFD-induced nonalcoholic steatohepatitis C57BL/6J mouse model assessed as induction of IBABP gene expression at 80 mg/kg, po administered daily for 4 weeks. The series is classed as functional, organism-based.

Series [6] in a line: Half life in Sprague-Dawley rat at 5 mg/kg, iv measured up to 24 hrs by HPLC analysis. The series is classed as ADME, organism-based. As to conditions: in vivo.
Series [7] in a line: Toxicity in CDAHFD-induced nonalcoholic steatohepatitis C57BL/6J mouse model assessed as reduction in serum AST level at 80 mg/kg, po administered daily for 4 weeks. The format is organism-based. Particulars: in vivo, 672 h.
Series [8] in a line: Drug metabolism in Sprague-Dawley rat plasma assessed as retention time of unidentified major metabolite at 5 mg/kg, iv upto 1 hr by RP-HPLC analysis. The series is classed as ADME, organism-based. Particulars: in vivo.
Series [9] addresses T1, Bile acid receptor (Mus musculus). The series is described as follows: In vivo activation of FXR in CDAHFD-induced nonalcoholic steatohepatitis C57BL/6J mouse model assessed as induction of SHP gene expression at 80 mg/kg, po administered daily for 4 weeks. The format is functional, organism-based.
A short description of series [10]: Toxicity in CDAHFD-induced nonalcoholic steatohepatitis C57BL/6J mouse model assessed as increase in liver wet weight at 80 mg/kg, po administered daily for 4 weeks […]. The series is classed as organism-based. As to conditions: in vivo, 672 h.
Series [11] has as its target T1, Bile acid receptor (Mus musculus). Kind of series: In vivo activation of FXR in […]-induced nonalcoholic steatohepatitis C57BL/6J mouse model assessed as improved glucose tolerance measured up to 120 mins by glucose tolerance test. The series is classed as functional.
Series [12] has as its target T2, Bile acid receptor (Homo sapiens) (UniProt Q96RI1).
T2 sequence (whole entry): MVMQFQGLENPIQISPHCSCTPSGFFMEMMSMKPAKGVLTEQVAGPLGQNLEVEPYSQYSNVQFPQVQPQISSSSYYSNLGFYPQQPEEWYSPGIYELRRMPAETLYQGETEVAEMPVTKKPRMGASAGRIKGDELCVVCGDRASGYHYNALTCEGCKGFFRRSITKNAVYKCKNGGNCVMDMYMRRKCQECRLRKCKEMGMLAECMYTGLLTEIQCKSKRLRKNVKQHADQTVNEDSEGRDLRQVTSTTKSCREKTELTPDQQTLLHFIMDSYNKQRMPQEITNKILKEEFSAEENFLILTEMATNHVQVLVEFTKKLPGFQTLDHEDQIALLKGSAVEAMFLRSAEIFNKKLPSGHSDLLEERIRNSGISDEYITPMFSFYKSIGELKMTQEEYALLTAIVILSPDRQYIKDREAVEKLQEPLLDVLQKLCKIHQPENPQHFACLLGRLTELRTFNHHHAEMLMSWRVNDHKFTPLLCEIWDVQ
The series is described as follows: Partial agonist activity at FXR (unknown origin) expressed in CHO-K1 cells coexpressed with beta-galactosidase incubated for 3 to 16 hrs by PathHunter chemiluminescence based assay relative to GW4064. The series is classed as cell-based. As to conditions: filed as partial agonist, time 3-16 hrs.

The subject of series [13] is Mus musculus. Kind of series: Antifibrotic activity in CDAHFD-induced nonalcoholic steatohepatitis C57BL/6J mouse model assessed as reduction in COL1A1 gene expression at 80 mg/kg, po administered daily for 4 weeks. The series is classed as functional, organism-based.
Series [14] addresses T1, Bile acid receptor (Mus musculus). The series is described as follows: In vivo activation of FXR in CDAHFD-induced nonalcoholic steatohepatitis C57BL/6J mouse model assessed as reduction in liver fibrosis at 80 mg/kg, po administered daily for 4 weeks by picrosirius red staining method. The series is classed as functional, organism-based.
The target is the same in series [15]. Kind of series: In vivo activation of FXR in CDAHFD-induced nonalcoholic steatohepatitis C57BL/6J mouse model assessed as induction of FGF15 gene expression at 80 mg/kg, po administered daily for 4 weeks. The format is functional, organism-based.
Series [16] concerns Mus musculus. The series is described as follows: Antiinflammatory activity in CDAHFD-induced nonalcoholic steatohepatitis C57BL/6J mouse model assessed as reduction in IL-1beta gene expression at 80 mg/kg, po administered daily for 4 weeks. The series is classed as functional, organism-based.
Series [17] in a line: Stability in Sprague-Dawley rat plasma at 80 mg/kg, po measured after 5 hrs by RP-HPLC analysis. The series is classed as ADME, organism-based. Particulars: in vivo.
A short description of series [18]: Oral bioavailability in Sprague-Dawley rat at 80 mg/kg measured up to 24 hrs by HPLC analysis. The format is ADME, organism-based. As to conditions: in vivo.
A short description of series [19]: Clearance in Sprague-Dawley rat at 5 mg/kg, iv measured up to 24 hrs by HPLC analysis. The series is classed as ADME, organism-based. Particulars: in vivo.
Series [20] in a line: Volume of distribution at steady state in Sprague-Dawley rat at 5 mg/kg, iv measured up to 24 hrs by HPLC analysis. The format is ADME, organism-based. As to conditions: in vivo, read-out: Vdss.
Series [21] is described as follows: Drug metabolism in Sprague-Dawley rat plasma assessed as (E)-3-(3-((2-Cyano-4'-dimethylaminobiphenyl-4-ylmethyl)-cyclohexanecarbonylamino)-5-fluorophenyl)acrylic Acid metabolite formation at 5 mg/kg, iv measured up to 20 to 60 mins by RP-HPLC analysis. The series is classed as ADME, organism-based. As to conditions: in vivo, time 20-60 min.
The nature of series [22]: AUClast in Sprague-Dawley rat at 5 mg/kg, iv measured up to 24 hrs by HPLC analysis. The format is ADME, organism-based. On the set-up: time < 24 hrs, dose 5 mg/kg, route iv. As to conditions: in vivo, 24 h.
A short description of series [23]: AUClast in Sprague-Dawley rat at 80 mg/kg, po measured up to 24 hrs by HPLC analysis. The format is ADME, organism-based. On the set-up: dose 80 mg/kg, time < 24 hrs, route po. Particulars: in vivo.
For series [24], the target named is T1, Bile acid receptor (Mus musculus). Kind of series: In vivo activation of FXR in CDAHFD-induced nonalcoholic steatohepatitis C57BL/6J mouse model assessed as induction of OST-alpha gene expression at 80 mg/kg, po administered daily for 4 weeks. The format is functional, organism-based.

Sequence of Peroxisome proliferator-activated receptor delta (Q03181 whole entry): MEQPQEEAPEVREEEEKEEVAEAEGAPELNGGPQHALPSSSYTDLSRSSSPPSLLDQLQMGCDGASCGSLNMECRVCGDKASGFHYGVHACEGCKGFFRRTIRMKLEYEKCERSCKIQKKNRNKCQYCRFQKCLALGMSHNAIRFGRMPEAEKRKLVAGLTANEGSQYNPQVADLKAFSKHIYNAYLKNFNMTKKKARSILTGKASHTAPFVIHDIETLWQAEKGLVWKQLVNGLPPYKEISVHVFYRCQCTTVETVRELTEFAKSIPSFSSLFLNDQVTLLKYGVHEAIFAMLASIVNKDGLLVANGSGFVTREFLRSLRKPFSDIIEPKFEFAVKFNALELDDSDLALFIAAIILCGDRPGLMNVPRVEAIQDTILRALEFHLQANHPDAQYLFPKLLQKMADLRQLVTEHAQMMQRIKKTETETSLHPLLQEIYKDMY

In general, EC50 refers to the concentration that produces a half-maximal response. A low value points to a more potent agent. In turn, `CCCc1c(OCCCOc2ccc(OCC(=O)O)cc2)ccc(C(C)=O)c1O` came in with an EC50 in series [1] of 6 nM.

One may read the half-life as the time needed for the level to fall by half in the phase considered. Read a low half-life as fast loss. Usually Emax stands for the size of the effect at its maximum, as opposed to the concentration needed. One may read the clearance as the rate of elimination divided by the concentration. Low readings indicate inefficient removal, high ones efficient removal. Consider `COC(=O)/C=C/c1cc(F)cc(N(Cc2ccc(-c3ccc(N(C)C)cc3)c(C#N)c2)C(=O)C2CCCCC2)c1`, for which the result (in the series on Mus musculus [2]; in series [5]; in series [9]; in series [11]; with Mus musculus [13]; in [14]) was Active. For the same compound, the result (in series [15]; in the series on Mus musculus [16]; in series [24]) was Active. Besides, the Activity entry in series [3], in series [4], in [7] and in [10] was “Non-Toxic” each time. In addition, the half-life in [6] was 4.8 min. In [8], the Retention_time is 5.25 min. Besides, in [12], the Emax was 53%. Besides, the Stability entry in series [17] is on record as “Unstable”. The compound also gave a F in [18] of 4%. The clearance in series [19] is 93.3 mL/min/kg. Further, the Vd in [20] was 0.7 L/kg. Besides, in series [21], the Drug metabolism entry was “Metabolite_Detected”. Further, the AUClast in series [22] was 900 ng·h/mL; in [23], 1500 ng·h/mL.

Source of the values: ChEMBL document CHEMBL5143733, “Discovery of (E)-3-(3-((2-Cyano-4'-dimethylaminobiphenyl-4-ylmethyl)cyclohexanecarbonylamino)-5-fluorophenyl)acrylic Acid Methyl Ester, an Intestine-Specific, FXR Partial Agonist for the Treatment of Nonalcoholic Steatohepatitis” (J Med Chem, 2022).
